“Also recorded” adds a separate entry of the source. Each block holds one molecule with its values, some of them ahead of it.
Tests used:
[1] = pharmacokinetics after a single intravenous dose in cynomolgus monkey; conditions: in vivo, 2.5 mg/kg
[2] = tested on: neointimal formation in porcine coronary arteries containing stents; experiment: porcine coronary stent model, histomorphometry at 28 days; format: in vivo
Description: The control stents are polymer-coated without drugs. This is important, for the polymer itself must not stimulate neointimal hyperplasia to a substantial degree. As the eluted drug disappears, an inflammatory response to the polymer could conceivably result in a late “catch-up phenomenon” where the restenosis process is not stopped, but instead slowed. This phenomenon would result in restenosis at late dates in human subjects.
Stems were implanted in two blood vessels in each pig. Pigs used in this model were generally 2-4 months old and weighed 30-40 kg. Two coronary stents were thus implanted in each pig by visually assessing a “normal” stent:artery ratio of 1.1-1.2.
Beginning on the day of the procedure, pigs were given oral aspirin (325 mg daily) and continued for the remainder of their course. General anesthesia was achieved by means of intramuscular injection followed by intravenous ketamine (30 mg/kg) and xylazine (3 mg/kg). Additional medication at the time of induction included atropine (1 mg) and flocillin (1 g) administered intramuscularly. During the stenting procedure, an intraarterial bolus of 10,000 units of heparin was administered.
Arterial access was obtained by cutdown on the right external carotid and placement of an 8F sheath. After the procedure, the animals were maintained on a normal diet without cholesterol or other special supplementation.
The BiodivYsio stent was used with nominal vessel target size of 3.0 mm. Two coronary arteries per pig were assigned at random to deployment of the stents. The stent was either a drug eluting stent (polymer plus drug stent) or a stent coated with a polymer only (polymer only stent). The stents were delivered by means of standard guide catheters and wires. The stent balloons were inflated to appropriate sizes for less than 30 seconds.
Each pig had one polymer only stent and one polymer plus drug stent placed in separate coronary arteries, so that each pig would have one stent for drug and one for control. A sample size of 20 pigs total was chosen to detect a projected difference in neointimal thickness of 0.2 mm with a standard deviation of 0.15 mm, at a power of 0.95 and […] 0.02.
Animals were euthanized at 28 days for histopathologic examination and quantification. Following removal of the heart from the perfusion pump system, the left atrial appendage was removed for access to the proximal coronary arteries. Coronary arterial segments with injuries were dissected free of the epicardium. Segments containing lesions were isolated, thereby allowing sufficient tissue to contain uninvolved blood vessel at either end. […]
The severity of vessel injury and the neointimal response were measured by calibrated digital microscopy. […]

[3] = release of drug from PC polymer-coated 316 L stainless steel coupons; format: physicochemical; conditions: PC polymer-coated 316 L coupon
Description: Rubber septa from lids from HPLC vials were removed from the vials and placed into glass vials so that the “Teflon” side faced up. These septa served as supports for the test samples. The test samples were 316 L, stainless steel coupons that had been previously coated with a biocompatible polymer containing phosphorylcholine side groups (PC polymer). Coronary stents are commonly made of 316 L stainless steel and can be coated with the PC polymer to provide a depot site for loading drugs. The coated coupons, which serve to simulate stents, were placed onto the septa. By using a glass Hamilton Syringe, a solution of A-179578 and ethanol (10 μl) was applied to the surface of each coupon. The solution contained A-179578 (30.6 mg) dissolved in 100% ethanol (3.0 ml). The syringe was cleaned with ethanol between each application. The cap to the glass vial was placed on the vial loosely, thereby assuring proper ventilation. The coupon was allowed to dry for a minimum of 1.5 hours. Twelve (12) coupons were loaded in this way, six being used to determine the average amount of drug loaded onto the device and six being used to measure the time needed to release the drug from the devices.
The coupon was placed onto a 5210 Branson sonicator for one hour. The coupon was then removed from the solution, and the solution was assayed by HPLC.
The time release studies were performed by immersing and removing the individual coupons from fresh aliquots (10.0 ml) of 0.01 M phosphate buffer at a pH of 6.0 at each of the following time intervals; 5, 15, 30 and 60 minutes. For the remaining time points of 120, 180, 240, 300, 360 minutes, volumes of 5.0 ml of buffer were used. To facilitate mixing during the drug release phase, the samples were placed onto a Eberbach shaker set at low speed. All solution aliquots were assayed by HPLC after the testing of the last sample was completed.
The HPLC analysis was performed with a Hewlett Packard series 1100 instrument having the following settings: Injection Volume is 100 μl; Acquisition Time is 40 minutes; Flow Rate is 1.0 ml/min; Column Temperature is 40 degrees Celsius; Wavelength is 278 nm; Mobile Phase is 65% Acetonitrile/35% H20; and Column is YMC ODS-A S5 μm, 4.6×250 mm (Part No. Al2052546WT).

[4] = loading and release of drug from 15 mm BiodivYsio drug delivery stents; format: physicochemical; conditions: 15 mm BiodivYsio stent
Procedure: Twelve individual polymer-coated stents were placed on fixtures designed to hold the stent in a vertical position and the stents were immersed vertically in the drug solution for five minutes. The stents and fixtures were removed from the vials and excess drug solution was blotted away by contacting the stents with an absorbant material. The stents were then allowed to dry in air for 30 minutes in an inverted vertical position.
The stents were removed from the fixtures, and each stent was placed into 50/50 acetonitrile/phosphate buffer (pH 5.1, 2.0 ml) and sonicated for one hour. The stems were removed from the solution and solutions were assayed for concentration of drug, which allowed calculation of the amount of drug originally on the stents. This method was independently shown to remove at least 95% of the drug from the stent coating. On average, the stents contained 60 micrograms of drug±20 micrograms.
The drug-loaded stents were placed on the fixtures and placed into 0.01 M phosphate buffer (pH=6.0, 1.9 ml) in individual vials. These samples were placed onto an Eberbach shaker set at low speed to provide back-and-forth agitation. To avoid approaching drug saturation in the buffer, the stents were transferred periodically to fresh buffer vials at the following points: 15, 30, 45, 60, 120, 135, 150, 165, 180, 240, 390 minutes. The dissolution buffer vials were assayed by HPLC for the drug concentration at the end of the drug release period studied. The data, represented as % cumulative release of the drug as a function of time, is shown in tabular form below: […]

[5] = tested on: neointima formation in the coronary arteries of adult miniature swine; experiment: swine safety and efficacy study of drug dosages on in-stent neointima formation; format: in vivo, Yucatan miniature swine
Procedure: The purpose of this example was to evaluate the safety and efficacy of different drug dosages on neointima formation. Drug was delivered from the BiodivYsio OC stent (15 mm) coated with AST-578. In-stent neointima formation was measured at […]; 3 days, 1 month, and 3 months in the coronary arteries of adult miniature swine. Forty (40) animals were studied at each time interval (10 animals per dose). Each animal received one drug-coated stent and one control stent. The control stent contained no drug.
Potential local tissue toxicity was assessed at all time intervals by examining histopathologic changes in the stented region, adjacent coronary segments, perivascular tissue, and subserved myocardium. The mortality, angiographic implant and restudy data, histomorphometry data, and stent site histopathology were studied.

[6] = porcine coronary arteries, 28 days

AUC [1]: 2550 ng·h/mL
Molecule: 40-epi-N-[2′-pyridone]-rapamycin [Example 2-pyridone]

Molecule: COC1CC2CCC(C)C(O)(O2)C(=O)C(=O)N2CCCCC2C(=O)OC(C(C)CC2CCC(n3cnnn3)C(OC)C2)CC(=O)C(C)C=C(C)C(O)C(OC)C(=O)C(C)CC(C)C=CC=CC=C1C (centres unmarked) [ABT-578, 42-(1-tetrazolyl)-rapamycin]
lumen area vs polymer only stent [2, 6]: greater lumen area
neointimal area vs polymer only stent [2, 6]: lower neointimal area
neointimal thickness vs polymer only stent [2, 6]: lower neointimal thickness
neointimal hyperplasia ([2]; stent with polymer in porcine coronary artery): reduction in neointimal hyperplasia
Percent Release ([3]; 0.01 M phosphate buffer pH 6.0, 0.00 min): 0.00%
Percent Release ([3]; 0.01 M phosphate buffer pH 6.0, 5.00 min): 1.87%
Percent Release ([3]; 0.01 M phosphate buffer pH 6.0, 15.00 min): 2.97%
Percent Release ([3]; 0.01 M phosphate buffer pH 6.0, 30.00 min): 3.24%
Percent Release ([3]; 0.01 M phosphate buffer pH 6.0, 60.00 min): 3.29%
Percent Release ([3]; 0.01 M phosphate buffer pH 6.0, 180.00 min): 4.36%
Percent Release ([3]; 0.01 M phosphate buffer pH 6.0, 240.00 min): 4.37%
Percent Release ([3]; 0.01 M phosphate buffer pH 6.0, 300.00 min): 6.34%
Percent Release ([3]; 0.01 M phosphate buffer pH 6.0, 360.00 min): 7.88%

Molecule: CO[C@H]1C[C@@H]2CC[C@@H](C)[C@@](O)(O2)C(=O)C(=O)N2CCCC[C@H]2C(=O)O[C@H]([C@H](C)C[C@@H]2CC[C@H](n3cnnn3)[C@H](OC)C2)CC(=O)[C@H](C)/C=C(\C)[C@@H](O)[C@@H](OC)C(=O)[C@H](C)C[C@H](C)/C=C/C=C/C=C/1C [ABT-578, 42-(1-tetrazolyl)-rapamycin]
% Cumulative Release of Drug ([4]; 0.01 M phosphate buffer pH 6.0, 15 min): 0.3%
% Cumulative Release of Drug ([4]; 0.01 M phosphate buffer pH 6.0, 30 min): 1.1%
% Cumulative Release of Drug ([4]; 0.01 M phosphate buffer pH 6.0, 45 min): 2.1%
% Cumulative Release of Drug ([4]; 0.01 M phosphate buffer pH 6.0, 60 min): 3.2%
% Cumulative Release of Drug ([4]; 0.01 M phosphate buffer pH 6.0, 120 min): 4.3%
% Cumulative Release of Drug ([4]; 0.01 M phosphate buffer pH 6.0, 135 min): 5.9%
% Cumulative Release of Drug ([4]; 0.01 M phosphate buffer pH 6.0, 150 min): 6.3%
% Cumulative Release of Drug ([4]; 0.01 M phosphate buffer pH 6.0, 165 min): 6.8%
% Cumulative Release of Drug ([4]; 0.01 M phosphate buffer pH 6.0, 180 min): 7.4%
local coronary arterial wall toxicity: medial necrosis or stent malapposition ([5]; any dose group up to approximately 27 μg/mm stent length, any time interval): no local coronary arterial wall toxicity
histologic % stenosis vs control ([5]; one month, dose group 3): tendency towards decreased
absolute intima area vs control ([5]; one month, dose groups 3 and 4): trends for decreases
intima thickness vs control ([5]; one month, dose groups 3 and 4): trends for decreases
Intima area normalized to injury score vs control ([5]; one month, dose groups 3 and 4 (10 and 27 μg/mm)): significantly decreased
neointima formation in stented coronary arteries ([5]; one month, locally eluted from stent): significant inhibitory effect; also recorded: reduced in-stent neointima formation
extent of endothelial recovery over the stent struts ([5]; three days after implant, all dosages, scanning electron microscopy): did not appear retarded
persistent inhibitory effect on neointima ([5]; three months): weak tendency

AUC [1]: 5590 ng·h/mL
Molecule: COC1CC2CCC(C)C(O)(O2)C(=O)C(=O)N2CCCCC2C(=O)OC(C(C)CC2CCC(n3ccc(=O)cc3)C(OC)C2)CC(=O)C(C)C=C(C)C(O)C(OC)C(=O)C(C)CC(C)C=CC=CC=C1C (stereo not drawn) [Example 4-pyridone, 40-epi-N-[4′-pyridone]-rapamycin]
